Assay results from publication PMC9606955, “In Vitro Activity of Essential Oils Distilled from Colombian Plants against Candida auris and Other Candida Species with Different Antifungal Susceptibility Profiles” (Molecules, 2022).
Values after ≈ are worked out from the molar mass of the structure shown.

Assays:
[1] = system: C. tropicalis ATCC 200956; assay: MIC, CLSI M27 broth microdilution; assay type: cell-based, Candida tropicalis; settings: C. tropicalis ATCC 200956; for MIC Range / MIC: antifungal drugs; for MIC: Candida tropicalis, ATCC200956, geometric mean, read-out: MIC GM
Summary of the method: (§1)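 Endpoint: visible growth inhibition versus control, read by eye after 24 h incubation at 35 °C. Broth microdilution in RPMI 1640-MOPS, 2.5 × 10^3 CFU/mL inoculum, compounds tested from 0.5 up to 256 µg/mL final. Reported as geometric mean and range.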

C. tropicalis ATCC 750 = assay: MIC, CLSI M27 broth microdilution; assay type: cell-based, Candida tropicalis; settings: antifungal drugs; for MIC: Candida tropicalis, ATCC750, geometric mean
Summary of the method: as §1

[2] = system: C. parapsilosis ATCC 22019; assay: MIC, CLSI M27 broth microdilution; assay type: cell-based, Candida parapsilosis; settings: antifungal drugs; for MIC: Lodderomyces parapsilosis, ATCC22019, geometric mean
Summary of the method: as §1

[3] = system: C. parapsilosis Synlab 406; assay: MIC, CLSI M27 broth microdilution; assay type: cell-based, Candida parapsilosis; settings: C. parapsilosis Synlab 406; for MIC Range / MIC: antifungal drugs; for MIC: Lodderomyces parapsilosis, SYNLAB406, geometric mean, read-out: MIC GM
Summary of the method: as §1

C. lusitaniae MUM 17.08 = assay: MIC, CLSI M27 broth microdilution; assay type: cell-based, Candida lusitaniae; settings: C. lusitaniae MUM 17.08, antifungal drugs; for MIC: Clavispora lusitaniae, MUM17.08, geometric mean, read-out: MIC GM
Summary of the method: as §1

C. glabrata LMDM 34 = assay: MIC, CLSI M27 broth microdilution; assay type: cell-based, Candida glabrata; settings: antifungal drugs; for MIC: Nakaseomyces glabratus, LMDM34, geometric mean
Source text: (§2) The fungal strains used in this study were C. albicans ATCC 10231, C. albicans ATCC 64550, C. parapsilosis ATCC 22019, C. tropicalis ATCC 750, C. tropicalis ATCC 200956 (resistant to azoles and AMB), C. glabrata LMDM 34 (resistant to echinocandins), C. metapsilosis MUM 15.12, C. orthopsilosis MUM 17.13, C. lusitaniae MUM 17.08, C. krusei ATCC 6258 (Issatchenkia orientalis ATCC 6258), and C. auris CDC B11903. Additionally, nine clinical isolates were included: C. parapsilosis Synlab 406 (FLC-resistant) and eight C. auris isolates identified by MALDI-TOF MS (Bruker Daltonics, Bremen, Germany) according to Zhao et al.. These yeasts were cultured on Sabouraud Dextrose Agar (SDA; Sigma-Aldrich, St. Louis, MO, USA) for 24 h at 35 °C.
(§3) Antifungal susceptibility testing was performed according to Clinical and Laboratory Standards Institute M27, 4th Edition (CLSI standard M27, 4th Edition). Some modifications were applied for evaluation of the antifungal activity of EOs and terpenes. Initially, a screening was carried out to determine the antifungal activity of the EOs and of commercial terpenes. Stock concentrations of EOs and terpenes were prepared at 512 µg/mL and an inoculum of 2.5 × 10^3 CFU/mL of each yeast was prepared in RPMI 1640-MOPS (Sigma- Aldrich St. Louis, MO, USA). Thereafter, 100 µL of each stock solution of EOs or terpenes was dispensed in 96-well microdilution plates (Corning®, Costar®, NY, USA) and 100 µL of each yeast inoculum was added. […] Microdilution plates were incubated at 35 °C and, after 24 h, the presence or absence of growth was visually checked using a manual mirror viewer and then compared with the amount of growth in the control (no EO or terpene). Compounds able to inhibit yeast growth were tested to determine the minimal inhibitory concentration (MIC) as follows: 100 µL of 10 two-fold dilutions of the EOs or commercial terpenes was dispensed in 96-well microplates and the yeast inoculum was added. Final concentrations of the EOs or terpenes ranged from 0.5 µg/mL to 256 µg/mL. Microdilution plates were incubated at 35 °C for 24 h. MICs were visually determined at the lowest concentration that produced visual inhibition compared to the growth control. The assays were performed at least three times in duplicate on different days. The results were expressed as geometric means (GM) and ranges. As an antifungal susceptibility testing control, the activity of ITC and AMB against the reference strains C. krusei ATCC 6258 and C. parapsilosis ATCC 22019 was evaluated in all experiments following the CLSI standard M27, 4th Edition. It was mandatory that the MIC values remained in the accepted range.

[4] = system: C. albicans ATCC 10231, C. tropicalis ATCC 200956, and C. auris CDC B11903; assay: Time–kill assay, control drugs; assay type: cell-based, Candida spp.; settings: fungicidal and fungistatic control drugs
Method: Time–kill assays with the L. origanoides (thymol + p-cymene) chemotype (Code 0018) EO, thymol, FLC, and AMB against C. albicans ATCC 10231, C. tropicalis ATCC 200956, and C. auris CDC B11903 were performed according to the protocol published by Klebser et al. with some modifications. […] Absorbance at λ = 490 nm was measured every 2 h with a Multiskan SkyHigh Microplate Spectrophotometer. AMB and FLC were included as fungicidal and fungistatic control drugs, respectively.

[5] = system: C. metapsilosis MUM 15.12; assay: MIC, CLSI M27 broth microdilution; assay type: cell-based, Candida metapsilosis; settings: C. metapsilosis MUM 15.12, antifungal drugs; for MIC: Lodderomyces metapsilosis, MUM15.12, geometric mean, read-out: MIC GM
Summary of the method: as §1

C. auris CDC B11903 = assay: MIC, CLSI M27 broth microdilution; assay type: cell-based, Candida auris; settings: C. auris CDCB11903, antifungal drugs; for MIC: Candidozyma auris, geometric mean, read-out: MIC GM
Summary of the method: as §1

C. auris Ca 41 = assay: MIC, CLSI M27 broth microdilution; assay type: cell-based, Candida auris; settings: C. auris Ca 41; for MIC Range / MIC: antifungal drugs; for MIC: Candidozyma auris, CA41, geometric mean, read-out: MIC GM
Summary of the method: as §1

C. auris Ca 1 = assay: MIC, CLSI M27 broth microdilution; assay type: cell-based, Candida auris; settings: C. auris Ca 1, antifungal drugs; for MIC: Candidozyma auris, CA1, geometric mean, read-out: MIC GM
Summary of the method: as §1

C. auris Ca 10 = assay: MIC, CLSI M27 broth microdilution; assay type: cell-based, Candida auris; settings: antifungal drugs; for MIC: Candidozyma auris, CA10, geometric mean
Summary of the method: as §1

C. auris Ca 32 = assay: MIC, CLSI M27 broth microdilution; assay type: cell-based, Candida auris; settings: C. auris Ca 32, antifungal drugs; for MIC: Candidozyma auris, CA32, geometric mean, read-out: MIC GM
Summary of the method: as §1

C. auris Ca 45 = assay: MIC, CLSI M27 broth microdilution; assay type: cell-based, Candida auris; settings: C. auris Ca 45; for MIC Range / MIC: antifungal drugs; for MIC: Candidozyma auris, CA45, geometric mean, read-out: MIC GM
Summary of the method: as §1

C. krusei ATCC 6258 = assay: MIC, CLSI M27 broth microdilution; assay type: cell-based, Candida krusei; settings: C. krusei ATCC 6258, antifungal drugs; for MIC: Pichia kudriavzevii, ATCC6258, geometric mean, read-out: MIC GM
Summary of the method: as §1

C. albicans ATCC 64550 = assay: MIC, CLSI M27 broth microdilution; assay type: cell-based, Candida albicans; settings: antifungal drugs; for MIC: Candida albicans, ATCC64550, geometric mean
Source text: as §2, §3

C. albicans ATCC 10231 = assay: MIC, CLSI M27 broth microdilution; assay type: cell-based, Candida albicans; settings: antifungal drugs; for MIC: Candida albicans, ATCC10231, geometric mean
Source text: as §2, §3

Compound | MIC Range [1] [µg/mL] | MIC [1] [µg/mL] | MIC (C. tropicalis ATCC 750) [µg/mL] | MIC Range (C. tropicalis ATCC 750) [µg/mL] | MIC [2] [µg/mL] | MIC Range [2] [µg/mL] | MIC Range [3] [µg/mL] | MIC [3] [µg/mL] | MIC Range (C. lusitaniae MUM 17.08) [µg/mL] | MIC (C. lusitaniae MUM 17.08) [µg/mL] | MIC (C. glabrata LMDM 34) [µg/mL] | MIC Range (C. glabrata LMDM 34) [µg/mL] | effect in time–kill assay (control drugs) [4] | MIC Range [5] [µg/mL] | MIC [5] [µg/mL] | MIC Range (C. auris CDC B11903) [µg/mL] | MIC (C. auris CDC B11903) [µg/mL] | MIC Range (C. auris Ca 41) [µg/mL] | MIC (C. auris Ca 41) [µg/mL] | MIC Range (C. auris Ca 1) [µg/mL] | further results
C[C@@H]1[C@H](O)[C@@H](C)/C=C/C=C/C=C/C=C/C=C/C=C/C=C/[C@H](O[C@@H]2O[C@H](C)[C@@H](O)[C@H](N)[C@@H]2O)C[C@@H]2O[C@](O)(C[C@@H](O)C[C@@H](O)[C@H](O)CC[C@@H](O)C[C@@H](O)CC(=O)O[C@H]1C)C[C@H](O)[C@H]2C(=O)O [AMB, amphotericin B] | 1 to 2 | 1.41 (≈ 1.53 µM) | 0.11 (≈ 0.119 µM) | 0.06 to 0.12 | 0.06 (≈ 0.0649 µM) | 0.06 (≈ 0.0649 µM) | 0.06 to 0.25 | 0.15 (≈ 0.162 µM) | 0.03 (≈ 0.0325 µM) | 0.03 (≈ 0.0325 µM) | 0.06 (≈ 0.0649 µM) | 0.06 to 0.12 | fungicidal | <0.03 | < 0.03 | 0.06 to 0.12 | 0.07 (≈ 0.0758 µM) | 1 (≈ 1.08 µM) | 1 (≈ 1.08 µM) | 0.12 to 0.25 | susceptibility category ([1]; resistance confirmed): resistance; susceptibility category (C. auris Ca 41; CDC breakpoints): AMB-resistant; MIC (C. auris Ca 1): 0.2 µg/mL (≈ 0.216 µM); MIC (C. auris Ca 10): 0.18 µg/mL (≈ 0.195 µM); MIC Range (C. auris Ca 10): 0.12 to 0.25 µg/mL; MIC Range (C. auris Ca 32): 0.12 to 0.5 µg/mL; MIC (C. auris Ca 32): 0.19 µg/mL (≈ 0.206 µM); susceptibility category (C. auris Ca 45; CDC breakpoints): AMB-resistant; MIC Range (C. auris Ca 45): 1 to 2 µg/mL; MIC (C. auris Ca 45): 1.41 µg/mL (≈ 1.53 µM); MIC Range (C. krusei ATCC 6258): 0.12 to 0.25 µg/mL; MIC (C. krusei ATCC 6258): 0.15 µg/mL (≈ 0.162 µM); MIC (C. albicans ATCC 64550): 0.04 µg/mL (≈ 0.0433 µM); MIC Range (C. albicans ATCC 64550): 0.03 to 0.12 µg/mL; MIC (C. albicans ATCC 10231): 0.04 µg/mL (≈ 0.0433 µM); MIC Range (C. albicans ATCC 10231): 0.03 to 0.12 µg/mL
OC(Cn1cncn1)(Cn1cncn1)c1ccc(F)cc1F [FLC, fluconazole] | >64 | > 64 | 1.4 (≈ 4.57 µM) | 1 to 2 | 0.7 (≈ 2.29 µM) | 0.5 to 1 | 8 to 16 | 11.3 (≈ 36.9 µM) | 0.5 (≈ 1.63 µM) | 0.5 (≈ 1.63 µM) | 2.8 (≈ 9.14 µM) | 2 to 4 | fungistatic | 1 to 2 | 1.4 (≈ 4.57 µM) | 1 to 2 | 1.4 (≈ 4.57 µM) | 2 (≈ 6.53 µM) | 2 (≈ 6.53 µM) | 4 (≈ 13.1 µM) | susceptibility category ([3]; resistance confirmed): resistance; MIC (C. auris Ca 1): 4 µg/mL (≈ 13.1 µM); MIC (C. auris Ca 10): 4 µg/mL (≈ 13.1 µM); MIC Range (C. auris Ca 10): 4 µg/mL (≈ 13.1 µM); MIC Range (C. auris Ca 32): 8 to 16 µg/mL; MIC (C. auris Ca 32): 11.3 µg/mL (≈ 36.9 µM); MIC Range (C. auris Ca 45): 2 µg/mL (≈ 6.53 µM); MIC (C. auris Ca 45): 2 µg/mL (≈ 6.53 µM); MIC Range (C. krusei ATCC 6258): 8 µg/mL (≈ 26.1 µM); MIC (C. krusei ATCC 6258): 8 µg/mL (≈ 26.1 µM); MIC (C. albicans ATCC 64550): 5.6 µg/mL (≈ 18.3 µM); MIC Range (C. albicans ATCC 64550): 4 to 8 µg/mL; MIC (C. albicans ATCC 10231): 4 µg/mL (≈ 13.1 µM); MIC Range (C. albicans ATCC 10231): 4 µg/mL (≈ 13.1 µM)
